This note sets out measurements from ChEMBL document CHEMBL5223190, “Discovery of Bis-sulfonamides as Novel Inhibitors of Mitochondrial NADH-Quinone Oxidoreductase (Complex I)” (ACS Med Chem Lett, 2023).

pIC50: −log10 of the molar value. Activity calls are given as the source filed them. The calls are words filed in the database; no cut-off is given here.

Biological target in the first assay: not listed separately
Kind of assay: Inhibition of bovine heart succinate-cytochrome c oxidoreductase activity using submitochondrial particle as source of enzyme measured after 4 mins. It counts as mitochondria, Bos taurus, Mitochondria.
Conditions: not given
The pIC50 is −log10 of the IC50, conventionally taken in molar units. Regarding `O=S(=O)(CCCOc1ccc(I)cc1)N1CCC[C@H]1COCOC[C@@H]1CCCN1S(=O)(=O)CCCOc1ccc(I)cc1`, the negative logarithm of the IC50 (pIC50) is less than 4.70. `CCCCCCCCCCS(=O)(=O)N1CCC[C@H]1COCOC[C@@H]1CCCN1S(=O)(=O)CCCOc1ccc(I)cc1` gave a pIC50 of less than 4.70.

The species entered for another assay is Bos taurus. Kind of assay: Binding affinity to bovine heart NADH-Q1 oxidoreductase (complex 1) oxidase activity using submitochondrial particle as source of enzyme using [125I]-(S)-2-{[(tert-butyldiphenylsilyl)oxy]methyl}-1-{[3-(hexyloxy)propyl]sulfonyl}pyrrolidine by SDS-PAGE analysis. The note with it: Mitochondria.
Turning to `O=S(=O)(CCCOc1ccc(I)cc1)N1CCC[C@H]1COCOC[C@@H]1CCCN1S(=O)(=O)CCCOc1ccc(I)cc1`, the result was Active. As for `CCCCCCCCCCS(=O)(=O)N1CCC[C@H]1COCOC[C@@H]1CCCN1S(=O)(=O)CCCOc1ccc(I)cc1`, the result was Active.

Biological target in another assay: not listed separately
Briefly: Inhibition of bovine heart NADH-Q1 oxidoreductase (complex 1) oxidase activity using submitochondrial particle as source of enzyme measured after 4 mins. The assay is classed as mitochondria, Bos taurus, Mitochondria.
Conditions: not given
In the case of `O=S(=O)(CCCOc1ccc(I)cc1)N1CCC[C@H]1COCOC[C@@H]1CCCN1S(=O)(=O)CCCOc1ccc(I)cc1`, the pIC50 is 7.59. In the case of `CCCCCCCCCCS(=O)(=O)N1CCC[C@H]1COCOC[C@@H]1CCCN1S(=O)(=O)CCCOc1ccc(I)cc1`, the pIC50 was 7.40. This pIC50 and that of the compound before are within 0.2 log units of each other.

Biological target in a further assay: not listed separately
Briefly: Inhibition of bovine heart NADH oxidase activity using submitochondrial particle as source of enzyme measured after 4 mins. The assay is classed as mitochondria, Bos taurus, Mitochondria.
Conditions: not given
As for `CC1(CCCCCCCCS(=O)(=O)N2CCC[C@H]2COCOC[C@@H]2CCCN2S(=O)(=O)CCCOc2ccc(I)cc2)N=N1`, the pIC50 was 7.80. `CCCCCCCCc1ccc(S(=O)(=O)N2CCC[C@H]2COCOC[C@@H]2CCCN2S(=O)(=O)c2ccc(CCCCCCCC)cc2)cc1` had a pIC50 of 5.47. As to `Cc1ccc(S(=O)(=O)N2CCC[C@@H]2COCOC[C@@H]2CCCN2S(=O)(=O)c2ccc(C)cc2)cc1`, the pIC50 was 6.09. Still for that read-out and setting: the same measure for `O=S(=O)(CCCOc1ccccc1)N1CCC[C@H]1COCOC[C@@H]1CCCN1S(=O)(=O)CCCOc1ccccc1`: 5.62.

The compound `Cc1ccc(S(=O)(=O)N2CC[C@H]2COCOC[C@@H]2CCN2S(=O)(=O)c2ccc(C)cc2)cc1` gave a pIC50 of 6.06. This pIC50 is 0.44 log units higher than that of the compound before. For `CCCCCCCCCCS(=O)(=O)N1CCC[C@H]1COCOC[C@@H]1CCCN1S(=O)(=O)CCCCCCCCCC`, the pIC50 is 7.06. On to `CCCCc1ccc(S(=O)(=O)N2CCC[C@H]2COCOC[C@@H]2CCCN2S(=O)(=O)c2ccc(CCCC)cc2)cc1`, for which the pIC50 is 6.85. Compared with the last compound, the pIC50 is 0.21 log units lower. As for `CCCCCc1ccc(S(=O)(=O)N2CCC[C@H]2COCOC[C@@H]2CCCN2S(=O)(=O)c2ccc(CCCCC)cc2)cc1`, the pIC50 is 6.82. Consider `CCCCCCCCCCCCS(=O)(=O)N1CCC[C@H]1COCOC[C@@H]1CCCN1S(=O)(=O)CCCCCCCCCCCC`, for which the pIC50 was 5.19. `Cc1ccc(S(=O)(=O)N2CCC[C@H]2COCOCc2ccccc2)cc1`: the pIC50 is 5.34. Compound `CCCCCCc1ccc(S(=O)(=O)N2CCC[C@H]2COCOC[C@@H]2CCCN2S(=O)(=O)c2ccc(CCCCCC)cc2)cc1` had a pIC50 of 7.01. As to `Cc1ccc(S(=O)(=O)N2CC[C@@H](OCO[C@@H]3CCN(S(=O)(=O)c4ccc(C)cc4)C3)C2)cc1`, the pIC50 is 4.51. This pIC50 lies 2.50 log units lower than the previous one. On the same count and under the same terms, the same measure for `COCOC[C@@H]1CCCN1S(=O)(=O)c1ccc(C)cc1`: 4.07; for `Cc1ccc(S(=O)(=O)N2CCC[C@H]2CCOCOCC[C@@H]2CCCN2S(=O)(=O)c2ccc(C)cc2)cc1`: 6.21. Regarding `O=S(=O)(CCCOc1ccc(I)cc1)N1CCC[C@H]1COCOC[C@@H]1CCCN1S(=O)(=O)CCCOc1ccc(I)cc1`, the pIC50 is 7.85. `Cc1ccc(S(=O)(=O)N2CCC[C@H]2CO)cc1` showed a pIC50 of less than 3.64. `CCCCCCCCCCS(=O)(=O)N1CCC[C@H]1COCOC[C@@H]1CCCN1S(=O)(=O)CCCOc1ccc(I)cc1` showed a negative logarithm of the IC50 (pIC50) of 7.77. In the case of `Cc1ccc(C(=O)N2CCC[C@H]2COCOC[C@@H]2CCCN2C(=O)c2ccc(C)cc2)cc1`, the pIC50 was 5.30. For the compound `O=S(=O)(c1ccc(Cl)cc1)N1CCC[C@H]1COCOC[C@@H]1CCCN1S(=O)(=O)c1ccc(Cl)cc1`, the pIC50 is 5.96. Against the preceding compound, the pIC50 is 0.66 log units higher.

Turning to `CCCCCCCCCCS(=O)(=O)N1CCC[C@H]1COCOC[C@@H]1CCCN1S(=O)(=O)CCCOc1ccc(C)cc1`, the pIC50 is 7.14. Against the preceding compound, the pIC50 is 1.18 log units higher.

Take `CCCCCCOCCCS(=O)(=O)N1CCC[C@H]1COCOC[C@@H]1CCCN1S(=O)(=O)CCCOCCCCCC`: the pIC50 was 6.59. Compound `COc1ccc(S(=O)(=O)N2CCC[C@H]2COCOC[C@@H]2CCCN2S(=O)(=O)c2ccc(OC)cc2)cc1` gave a pIC50 of 5.36.

Compound `CCCCCCCCS(=O)(=O)N1CCC[C@H]1COCOC[C@@H]1CCCN1S(=O)(=O)CCCCCCCC` had a pIC50 of 6.44.

In turn, `Cc1ccc(S(=O)(=O)N2CCCC[C@H]2COCOC[C@@H]2CCCCN2S(=O)(=O)c2ccc(C)cc2)cc1` showed a pIC50 of 5.59. Consider `Cc1ccc(S(=O)(=O)N2[C@H](COCOC[C@@H]3C[C@@H]4CCCC[C@@H]4N3S(=O)(=O)c3ccc(C)cc3)C[C@@H]3CCCC[C@@H]32)cc1`, for which the pIC50 is 5.24.

With `CCCCCCCCCCS(=O)(=O)N1CCC[C@H]1COCOC[C@@H]1CCCN1S(=O)(=O)CCCOCCCCCC`, the pIC50 is 7.32. Compared with the last compound, the pIC50 is 2.08 log units higher.

In the case of `CCCCCCCCCCS(=O)(=O)N1CCC[C@H]1COCOC[C@@H]1CCCN1S(=O)(=O)CCCOc1ccccc1`, the pIC50 was 6.82. `Cc1ccc(S(=O)(=O)N(C)CCOCOCCN(C)S(=O)(=O)c2ccc(C)cc2)cc1` had a negative-log IC50 (pIC50) of 5.19. This pIC50 lies 1.63 log units lower than the previous one. `Cc1ccc(OCCCS(=O)(=O)N2CCC[C@H]2COCOC[C@@H]2CCCN2S(=O)(=O)CCCOc2ccc(C)cc2)cc1`: the pIC50 was 6.57. This pIC50 is 1.38 log units higher than that of the compound before.

Regarding `O=S(=O)(c1ccccc1)N1CCC[C@H]1COCOC[C@@H]1CCCN1S(=O)(=O)c1ccccc1`, the pIC50 was 5.39.

The compound `Cc1ccc(S(=O)(=O)N2CCC[C@H]2COCOCCCc2ccccc2)cc1` showed a pIC50 of 5.96. Take `CCCCCCCc1ccc(S(=O)(=O)N2CCC[C@H]2COCOC[C@@H]2CCCN2S(=O)(=O)c2ccc(CCCCCCC)cc2)cc1`: the negative-log IC50 (pIC50) was 5.44.

Consider `Cc1ccc(S(=O)(=O)N2CCC[C@H]2COCOC[C@@H]2CCCN2S(=O)(=O)c2ccc(C)cc2)cc1`, for which the pIC50 was 6.05. Compound `Cc1ccc(S(=O)(=O)N2CCC[C@@H]2COCOC[C@H]2CCCN2S(=O)(=O)c2ccc(C)cc2)cc1` had a pIC50 of 5.51. Against the preceding compound, the pIC50 is 0.54 log units lower.

`Cc1ccc(S(=O)(=O)N2CC[C@@H](COCOC[C@@H]3CCN(S(=O)(=O)c4ccc(C)cc4)C3)C2)cc1` had a pIC50 of 5.89.
